For test [1], the system named is T1, General amino-acid permease GAP1 (Saccharomyces cerevisiae), P19145 [I382C].
T1 sequence (whole entry): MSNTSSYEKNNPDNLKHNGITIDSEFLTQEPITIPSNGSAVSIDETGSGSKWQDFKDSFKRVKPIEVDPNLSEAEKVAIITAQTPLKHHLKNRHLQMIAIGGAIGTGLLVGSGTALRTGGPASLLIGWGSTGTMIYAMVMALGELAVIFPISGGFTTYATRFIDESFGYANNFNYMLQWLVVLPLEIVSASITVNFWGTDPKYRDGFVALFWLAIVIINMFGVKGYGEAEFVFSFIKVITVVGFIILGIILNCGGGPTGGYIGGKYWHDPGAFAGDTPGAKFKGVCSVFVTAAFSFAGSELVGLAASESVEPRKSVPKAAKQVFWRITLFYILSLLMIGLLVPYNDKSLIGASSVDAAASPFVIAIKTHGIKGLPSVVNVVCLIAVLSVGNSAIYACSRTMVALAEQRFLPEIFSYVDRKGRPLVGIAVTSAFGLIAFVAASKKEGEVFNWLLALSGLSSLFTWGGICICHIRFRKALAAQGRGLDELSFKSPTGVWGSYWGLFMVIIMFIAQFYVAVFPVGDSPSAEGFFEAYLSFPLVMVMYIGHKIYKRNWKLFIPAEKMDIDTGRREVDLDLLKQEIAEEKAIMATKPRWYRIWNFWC
Briefly: Activation of yeast Gap1 I382C mutant-mediated amino acid uptake at 10 mM.

Test [2] relates to T2, General amino-acid permease GAP1 (Saccharomyces cerevisiae), P19145 [R399C].
T2 sequence (whole entry): T1 sequence (whole entry) with C382I, R399C
Briefly: Activation of yeast Gap1 R399C mutant-mediated amino acid uptake at 10 mM.

In test [3] the test system is T3, General amino-acid permease GAP1 (Saccharomyces cerevisiae), P19145 [A403C].
T3 sequence (whole entry): T1 sequence (whole entry) with C382I, A403C
Briefly: Activation of yeast Gap1 A403C mutant-mediated amino acid uptake at 10 mM.

Test [4] deals with T4, General amino-acid permease GAP1 (Saccharomyces cerevisiae), P19145 [L387C].
T4 sequence (whole entry): T1 sequence (whole entry) with C382I, L387C
Briefly: Induction of yeast Gap1 L387C mutant-mediated trehalose activation at 10 mM.

Test [5] deals with T2, General amino-acid permease GAP1 (Saccharomyces cerevisiae), P19145 [R399C]. Briefly: Induction of yeast Gap1 R399C mutant-mediated trehalose activation at 10 mM.
The subject of test [6] is General amino-acid permease GAP1 (Saccharomyces cerevisiae), P19145 [I394C]. In words: Inhibition of yeast Gap1 I394C mutant-mediated trehalose activation at 10 mM.
Test [7] has as its system General amino-acid permease GAP1 (Saccharomyces cerevisiae), P19145 [S388C]. Briefly: Induction of yeast Gap1 S388C mutant-mediated amino acid uptake at 2 mM in presence of 10 mM MTSEA treated before compound addition.

Residue numbers refer to the chain shown, from its start. Active and inactive are the calls of the source. No cut-off for these calls is given here.

Chain of General amino-acid permease GAP1 (Saccharomyces cerevisiae), P19145 [S388C] (P19145 whole entry S388C): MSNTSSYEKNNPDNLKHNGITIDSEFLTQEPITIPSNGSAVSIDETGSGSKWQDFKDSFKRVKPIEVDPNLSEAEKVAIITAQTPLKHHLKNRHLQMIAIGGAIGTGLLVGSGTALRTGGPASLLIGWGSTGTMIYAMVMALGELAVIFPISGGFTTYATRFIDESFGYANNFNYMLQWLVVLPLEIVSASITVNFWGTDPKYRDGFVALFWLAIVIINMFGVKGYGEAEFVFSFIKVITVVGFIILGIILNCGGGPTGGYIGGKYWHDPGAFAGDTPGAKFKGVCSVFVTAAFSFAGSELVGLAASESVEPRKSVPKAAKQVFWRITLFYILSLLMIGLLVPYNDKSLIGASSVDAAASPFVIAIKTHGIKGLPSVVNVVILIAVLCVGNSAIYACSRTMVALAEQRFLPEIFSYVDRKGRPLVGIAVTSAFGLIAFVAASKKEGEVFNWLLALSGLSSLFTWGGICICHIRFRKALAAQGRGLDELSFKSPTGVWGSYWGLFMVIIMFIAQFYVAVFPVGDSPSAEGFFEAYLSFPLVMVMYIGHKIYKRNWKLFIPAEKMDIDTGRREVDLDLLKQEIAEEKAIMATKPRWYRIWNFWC
Chain of General amino-acid permease GAP1 (Saccharomyces cerevisiae), P19145 [I394C] (P19145 whole entry I394C): as the sequence (P19145 whole entry S388C) above, with C388S, I394C counted along it

With `NC(=O)NCCC[C@H](N)C(=O)O`, the outcome in test [1], in test [2], in test [3], in test [4] and in test [5] was inactive. In test [6], the inhibition result was “Active”. Further, the inhibition result in test [7] is “inactive”.

These data come from ChEMBL document CHEMBL1221220, “Transport and signaling via the amino acid binding site of the yeast Gap1 amino acid transceptor” (Nat Chem Biol, 2009).
